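GI50 = concentration required for 50% inhibition of growth. Definition used: TGI = concentration required for complete inhibition of growth.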
Columns and labels:
Assay in all cases: inhibition of tumour cell growth, NCI panel, 384-well format
NCI-H23 lung = test system: NCI-H23 lung
HOP-92 NSCLC = test system: HOP-92 NSCLC
T-47D breast = test system: T-47D breast
BT-549 breast = test system: BT-549 breast
EKVX NSCLC = test system: EKVX NSCLC
MDA-MB-468 breast = test system: MDA-MB-468 breast
K-562 leukemia = test system: K-562 leukemia
RPMI-8226 leukemia = test system: RPMI-8226 leukemia
SNB-75 CNS = test system: SNB-75 CNS
U251 glioblastoma = test system: U251 glioblastoma
NCI-H522 lung = test system: NCI-H522 lung
CCRF-CEM leukemia = test system: CCRF-CEM leukemia
CAKI-1 renal = test system: CAKI-1 renal
ACHN renal = test system: ACHN renal
NCI-H460 NSCLC = test system: NCI-H460 NSCLC
SF-295 CNS = test system: SF-295 CNS
SF-268 CNS = test system: SF-268 CNS
SF-539 CNS = test system: SF-539 CNS
OVCAR-5 ovarian = test system: OVCAR-5 ovarian
HCC-2998 colon = test system: HCC-2998 colon
786-0 renal = test system: 786-0 renal
MCF7 breast = test system: MCF7 breast
KM12 colon = test system: KM12 colon
HCT-116 colon = test system: HCT-116 colon
LOX IMVI melanoma = test system: LOX IMVI melanoma
HS 578T breast = test system: HS 578T breast
PC-3 prostate = test system: PC-3 prostate
MDA-MB-231 breast = test system: MDA-MB-231 breast
NCI-H226 lung = test system: NCI-H226 lung
HOP-62 NSCLC = test system: HOP-62 NSCLC
RXF 393 renal = test system: RXF 393 renal
UACC-62 melanoma = test system: UACC-62 melanoma
SW-620 colon = test system: SW-620 colon
A549 NSCLC = test system: A549 NSCLC
MOLT-4 leukemia = test system: MOLT-4 leukemia
OVCAR-8 ovarian = test system: OVCAR-8 ovarian
COLO 205 colon = test system: COLO 205 colon
SN12C renal = test system: SN12C renal
MDA-MB-435 melanoma = test system: MDA-MB-435 melanoma
SK-MEL-28 melanoma = test system: SK-MEL-28 melanoma
DU-145 prostate = test system: DU-145 prostate
M14 melanoma = test system: M14 melanoma
NCI-H322M lung = test system: NCI-H322M lung
UO-31 renal = test system: UO-31 renal
SK-MEL-5 melanoma = test system: SK-MEL-5 melanoma
UACC-257 melanoma = test system: UACC-257 melanoma
NCI/ADR-RES ovarian = test system: NCI/ADR-RES ovarian
MALME-3M melanoma = test system: MALME-3M melanoma
SNB-19 CNS = test system: SNB-19 CNS
IGROV1 ovarian = test system: IGROV1 ovarian
OVCAR-4 ovarian = test system: OVCAR-4 ovarian
SR leukemia = test system: SR leukemia
HT29 colon = test system: HT29 colon
A498 renal = test system: A498 renal
HCT-15 colon = test system: HCT-15 colon
TK-10 renal = test system: TK-10 renal
SK-MEL-2 melanoma = test system: SK-MEL-2 melanoma
HL-60(TB) leukemia = test system: HL-60(TB) leukemia
OVCAR-3 ovarian = test system: OVCAR-3 ovarian

CCS(=O)(=O)N1CCN(c2ccc(Nc3ncc(C(N)=O)c(NC4CC4)n3)cc2)CC1 showed a GI50 (NCI-H23 lung) of 1.29 µM, a TGI (NCI-H23 lung) of 4.25 µM and a GI50 (HOP-92 NSCLC) of 3.72 µM. For the same compound, the TGI (HOP-92 NSCLC) was 14.9 µM, the GI50 (T-47D breast) was 2.23 µM and the TGI (T-47D breast) was 4.43 µM. For the same compound, the GI50 (BT-549 breast) was 1.1 µM, the TGI (BT-549 breast) was 2.51 µM and the GI50 (EKVX NSCLC) was 1.92 µM. For the same compound, the TGI (EKVX NSCLC) was 10.2 µM, the GI50 (MDA-MB-468 breast) was 2.05 µM and the TGI (MDA-MB-468 breast) was 3.75 µM. The GI50 (K-562 leukemia) was 2.06 µM, the TGI (K-562 leukemia) was 8.1 µM and the GI50 (RPMI-8226 leukemia) was 0.155 µM. It also gave a TGI (RPMI-8226 leukemia) of 0.401 µM, a GI50 (SNB-75 CNS) of 4.03 µM and a TGI (SNB-75 CNS) of 8.56 µM. It also gave a GI50 (U251 glioblastoma) of 6.79 µM, a TGI (U251 glioblastoma) of over 100 µM and a GI50 (NCI-H522 lung) of 0.674 µM. The TGI (NCI-H522 lung) was 4.97 µM, the GI50 (CCRF-CEM leukemia) was 0.366 µM and the TGI (CCRF-CEM leukemia) was 1.27 µM. For the same compound, the GI50 (CAKI-1 renal) was 6.05 µM, the TGI (CAKI-1 renal) was over 100 µM and the GI50 (ACHN renal) was 4.3 µM. For the same compound, the TGI (ACHN renal) was over 100 µM, the GI50 (NCI-H460 NSCLC) was 3.17 µM and the TGI (NCI-H460 NSCLC) was 51.7 µM. For the same compound, the GI50 (SF-295 CNS) was 1.26 µM, the TGI (SF-295 CNS) was 3.43 µM and the GI50 (SF-268 CNS) was 1.9 µM. It also gave a TGI (SF-268 CNS) of 21.5 µM, a GI50 (SF-539 CNS) of 1.18 µM and a TGI (SF-539 CNS) of 2.73 µM. The GI50 (OVCAR-5 ovarian) was 4.25 µM, the TGI (OVCAR-5 ovarian) was 18.7 µM and the GI50 (HCC-2998 colon) was 2.5 µM. It also gave a TGI (HCC-2998 colon) of 5.15 µM, a GI50 ([…]-0 renal) of 1.6 µM and a TGI (786-0 renal) of 3.41 µM. The GI50 (MCF7 breast) was 1.41 µM, the TGI (MCF7 breast) was 22.3 µM and the GI50 (KM12 colon) was 0.44 µM. For the same compound, the TGI (KM12 colon) was 12 µM, the GI50 (HCT-116 colon) was 3.72 µM and the TGI (HCT-116 colon) was 91.1 µM. It also gave a GI50 (LOX IMVI melanoma) of 2.01 µM, a TGI (LOX IMVI melanoma) of 13.3 µM and a GI50 (HS 578T breast) of 2.01 µM. The TGI (HS 578T breast) was 4.45 µM, the GI50 (PC-3 prostate) was 10.4 µM and the TGI (PC-3 prostate) was over 100 µM. For the same compound, the GI50 (MDA-MB-231 breast) was 2.93 µM, the TGI (MDA-MB-231 breast) was 33.6 µM and the GI50 (NCI-H226 lung) was 0.633 µM. It also gave a TGI (NCI-H226 lung) of 10.6 µM, a GI50 (HOP-62 NSCLC) of 1.89 µM and a TGI (HOP-62 NSCLC) of 5.01 µM. For the same compound, the GI50 (RXF 393 renal) was 1.51 µM, the TGI (RXF 393 renal) was 3.73 µM and the GI50 (UACC-62 melanoma) was 9.42 µM. The TGI (UACC-62 melanoma) was 23.9 µM, the GI50 (SW-620 colon) was 44.9 µM and the TGI (SW-620 colon) was over 100 µM. The GI50 (A549 NSCLC) was 1.83 µM, the TGI (A549 NSCLC) was over 100 µM and the GI50 (MOLT-4 leukemia) was 0.381 µM. It also gave a TGI (MOLT-4 leukemia) of 1.54 µM, a GI50 (OVCAR-8 ovarian) of 0.371 µM and a TGI (OVCAR-8 ovarian) of 1.4 µM. The GI50 (COLO 205 colon) was 0.485 µM, the TGI (COLO 205 colon) was 2.18 µM and the GI50 (SN12C renal) was 1.76 µM. For the same compound, the TGI (SN12C renal) was 10.2 µM, the GI50 (MDA-MB-435 melanoma) was 1.63 µM and the TGI (MDA-MB-435 melanoma) was 8.98 µM. The GI50 (SK-MEL-28 melanoma) was 2.93 µM, the TGI (SK-MEL-28 melanoma) was 50.7 µM and the GI50 (DU-145 prostate) was 2.82 µM. The TGI (DU-145 prostate) was 18.8 µM, the GI50 (M14 melanoma) was 0.301 µM and the TGI (M14 melanoma) was 3.42 µM. For the same compound, the GI50 (NCI-H322M lung) was 1.59 µM, the TGI (NCI-H322M lung) was 3.93 µM and the GI50 (UO-31 renal) was 2.92 µM. For the same compound, the TGI (UO-31 renal) was over 100 µM, the GI50 (SK-MEL-5 melanoma) was 1.39 µM and the TGI (SK-MEL-5 melanoma) was 4.65 µM. The GI50 (UACC-257 melanoma) was 10.2 µM, the TGI (UACC-257 melanoma) was 63 µM and the GI50 (NCI/ADR-RES ovarian) was 7.08 µM. It also gave a TGI (NCI/ADR-RES ovarian) of 28.6 µM, a GI50 (MALME-3M melanoma) of 0.539 µM and a TGI (MALME-3M melanoma) of 4.14 µM. For the same compound, the GI50 (SNB-19 CNS) was 8.88 µM, the TGI (SNB-19 CNS) was over 100 µM and the GI50 (IGROV1 ovarian) was 2.82 µM. It also gave a TGI (IGROV1 ovarian) of 16.3 µM, a GI50 (OVCAR-4 ovarian) of 2.06 µM and a TGI (OVCAR-4 ovarian) of 5.72 µM. The GI50 (SR leukemia) was 0.368 µM, the TGI (SR leukemia) was 1.29 µM and the GI50 (HT29 colon) was 4.09 µM. The TGI (HT29 colon) was 56.4 µM, the GI50 (A498 renal) was 1.68 µM and the TGI (A498 renal) was 5.19 µM. It also gave a GI50 (HCT-15 colon) of 1.58 µM, a TGI (HCT-15 colon) of 3.27 µM and a GI50 (TK-10 renal) of 2.2 µM. The TGI (TK-10 renal) was 5.5 µM, the GI50 (SK-MEL-2 melanoma) was 1.87 µM and the TGI (SK-MEL-2 melanoma) was 3.89 µM. For the same compound, the GI50 (HL-60(TB) leukemia) was 0.418 µM, the TGI (HL-60(TB) leukemia) was 2.04 µM and the GI50 (OVCAR-3 ovarian) was 2.61 µM. For the same compound, the TGI (OVCAR-3 ovarian) was 7.63 µM.

Reference: PubChem BioAssay (NCI)
